Test results as given in paper PMC7509492, “To What Extent Do Fluorophores Bias the Biological Activity of Peptides? A Practical Approach Using Membrane-Active Peptides as Models” (Frontiers in Bioengineering and Biotechnology, 2020).
Where two headings read alike, the source gives them in different places. Ends that are not written are not given here. Peptide text beside a SMILES is read from it. * marks the point of attachment. RhodamineB = CCN(CC)c1ccc2c(-c3ccccc3C(=O)*)c3ccc(=[N+](CC)CC)cc-3oc2c1; X1 = CC[N+]1=C(C=CC=C2N(CCCCCC(=O)*)c3ccccc3C2(C)C)C(C)(C)c2ccccc21; 5FAM = O=C1OC2(c3ccc(O)cc3Oc3cc(O)ccc32)c2ccc(C(=O)*)cc21

Assays:
[1] = system: HBEC-5i cells; assay: CellTiter-Blue cell viability assay, HBEC-5i; type: cell-based, human; settings: peptide 0.01-100 μM, mean ± SD, triplicates of three independent experiments; for IC50: Table 1, 24 h, read-out: Cytotoxicity HBEC-5i cells IC50; for Cytotoxicity HBEC-5i cells IC10: Table 1, concentration causing 10% cell death; for Cytotoxicity HBEC-5i cells IC10 / Cytotoxicity HBEC-5i cells IC90: 24 h; for Cytotoxicity HBEC-5i cells IC90: Table 1, concentration causing 90% cell death
Description: (§1) Peptides cytotoxicity against both HBEC-5i and MDA-MB-231 cells was determined using CellTiter-Blue® Cell Viability Assay, according to the manufacturer’s instructions. The assay is based on the ability of viable cells to reduce resazurin into resorufin, a highly fluorescent metabolite. […] Therefore, using this methodology is possible to distinguish between metabolic and non-metabolic cells and indirectly determine the cytotoxicity of peptides. Briefly, HBEC-5i and MDA-MB-231 cells were carefully detached from T-flasks, as described previously, and seeded 15,000/100 and 10,000/100 μL, respectively, in 96-well plates (Corning, United States) and incubated for 24 h. After medium removal, cells were washed two times with 1× PBS and 100 μL of previously diluted peptides (range between 0.01 and 100 μM) in either DMEM or DMEM:F12 medium were added to MDA-MB-231 or HBEC-5i cells, respectively. After 24 h incubation, cells were washed two times with 1× PBS, and 20 μL of CellTiter-Blue® Reagent (diluted in 100 μL of medium) was added to each well and incubated for 3 h in a humidified atmosphere of 5% CO2 at 37°C. The fluorescence intensity was measured at λ with an excitation of 560 nm and maximum emission at 590 nm using the infinite F200 TECAN plate reader. Medium and 1% Triton X-100-containing medium were used as positive controls (100% cell viability) and negative controls (0% cell viability), respectively. Cell viability (%) was determined using the following equation:
(§2) (7) CellViability=FP-FNC/FPC-FNC×100
(§3) Fp is the fluorescence intensity of peptide-treated cells, FNC is the fluorescence intensity for negative controls, and FPC is the fluorescence intensity for positive controls.
(§4) Experiments were performed on different days using independently grown cell cultures.
(§5) FIGURE 4 In vitro cytotoxicity unlabeled- and labeled-peptides. (A,B) Cytotoxicity against HBEC-5i cells. (C,D) Cytotoxicity against MDA-MB-231 cells. 1.5 × 10^4 and 1.0 × 10^4 cells of HBEC-5i and MDA-MB-231 cells, respectively, were incubated with various concentrations of peptides (range from 0.01 to 100 μM). The percentage of viability was determined using CellTiter® Blue reagent assay. […] Error bars, S.D.

[2] = system: HBEC-5i cells (in vitro BBB model); assay: In vitro BBB translocation across HBEC-5i transwell monolayer; type: in vitro ADME, human; settings: HBEC-5i monolayer on PET transwell 1.0 μm pores, apical to basolateral, 10 μM, 24 h, DMEM:F12 without phenol red, mean ± SD, triplicates of three independent experiments
Excerpt: HBEC-5i cells were allowed to grow until confluence in a gelatin-coated T-flask. Then, cells were carefully harvested with trypsin-EDTA (Gibco/Thermo Fisher, United States) and seeded 8,000 cells/well to 0.1% gelatin solution coated tissue culture inserts [transparent polyester (PET) membrane with 1.0 μm pores] for 24-well plates (BD Falcon, United States). During 8 days, the medium was changed every 2 days. After 8 days, cells were washed two times with 1× PBS and once with DMEM:F12 medium without phenol red (Gibco/Thermo Fisher, United States). Then, peptides diluted in DMEM:F12 medium without phenol red to a final concentration of 10 μM were added to the apical side of the in vitro BBB model (Figure 1). Experiments were performed on different days using independently grown cell cultures.
FIGURE 1 Scheme of an in vitro BBB transwell membrane system. Human brain endothelial cells (HBEC-5i) are cultured as monolayer on the apical side of a polyester (PET) transwell insert (1.0 μm pore size). Then, 10 μM of peptides are added to the apical side, and the translocation measured as the amount detected on the basolateral side.
The translocation of peptides labeled with different fluorophores was determined by fluorescence emission. After 24 h incubation, samples from the apical and basolateral side were collected and analyzed. Fluorescence was measured using the infinite F200 TECAN plate reader. The percentage (%) of translocation was calculated using the following equation:
(3) Translocation(%)=(Fi-Fcells/Fpeptide-FMedium)×100
Fi is the fluorescence intensity recovered, Fcells is the fluorescence intensity recovered from cells without peptide incubation, Fpeptide is the fluorescence intensity of total peptide initially added to the transwell apical side, and FMedium is the fluorescence intensity of the medium.
The translocation of unlabeled peptides was determined by the calculation of the respective area under the curve (AUC) in the reversed phase HPLC chromatograms. After 24 h incubation, samples from the apical and basolateral side were collected and analyzed by HPLC on a PerkinElmer Series 200 pump coupled to a PerkinElmer Series 200 UV/Vis Detector on a Luca C18 column (4.6 mm × 50 mm, 3 μm, Phenomenex, United States), eluting with linear gradients of HCOOH/MeCN (0.1%, v/v) into HCOOH/H2O (0.1%, v/v) over 15 min at 1 mL/min. UV detection was λ = 220 nm. The percentage (%) of translocation was calculated using the following equation:
(4) Translocation(%)=(AUCi/AUCpeptide)×100
AUCi is the AUC of peptide recovered and AUCpeptide is the AUC of total peptide initially added to the transwell apical side.

[3] = system: human RBCs; assay: Hemolytic activity on human red blood cells; settings: 37°C; for Hemolytic activity HC10 / Hemolytic activity HC50 / Hemolytic activity HC90: Table 1, human RBCs in 1x PBS pH 7.4, 24 h, peptide 0.01-100 μM, mean ± SD, triplicates of three independent experiments; for Hemolytic activity HC10: concentration causing 10% hemolysis, hemoglobin absorbance 570 nm; for Hemolytic activity HC50: concentration causing 50% hemolysis; for Hemolytic activity HC50 / Hemolytic activity HC90: absorbance 570 nm; for Hemolytic activity HC90: concentration causing 90% hemolysis
Description: (§6) Fresh human blood was collected in EDTA tubes and centrifuged at 1,000 × g for 10 min at 4°C. The supernatant was discharged, and the pellet containing RBCs was washed three times with 1× PBS (137 mM NaCl, 2.7 mM KCl, 10 mM Na2HPO4, and 1.8 mM KH2PO4, pH 7.4) and resuspended in 1× PBS to obtain a 2.0% (v/v) suspension. Then, RBCs were added to centrifuge tubes containing two-fold serially diluted peptides to a final concentration ranging from 0.01 to 100 μM. The suspension was incubated for 24 h at 37°C with gentle stirring. After that, samples were centrifuged for 2 min at 1,000 × g. Supernatants were transferred to 96-well plates, and the hemoglobin released measured by absorbance at 570 nm in an Infinite F200 TECAN plate reader. 1× PBS with no peptides and Triton X-100 at 1 and 4% (v/v) were used as negative and positive controls, respectively. Hemolytic activity (%) was determined using the following equation:
(§7) (2) Hemolyticactivity(%)=AbsPT-AbsNC/AbsPC-AbsNC
(§8) where, AbsPT is the absorbance of treated samples, AbsNC is the absorbance from negative control, and AbsPC absorbance from positive control.
(§9) HC50 values were determined using the GraphPad Prism 7.0 software using a log(inhibitor) vs. normalized response. Experiments were performed on different days using independent blood donors.
(§10) (range from 0.01 to 100 μM). The percentage of hemolysis was determined by the absorbance of hemoglobin released into the supernatant. Melittin was included as a control peptide with hemolytic properties. The values were obtained from triplicates of three independent experiments. Error bars, S.D.

[4] = CellTiter-Blue cell viability assay, HBEC-5i; type: cell-based, human; settings: human, HBEC-5i cells, Table 1, peptide 0.01-100 μM, mean ± SD, triplicates of three independent experiments, read-out: Cytotoxicity HBEC-5i cells IC50
Description: as §1, §2, §3, §4, §5

[5] = system: human RBCs
Description: as §6, §7, §8, §9, §10

[6] = labeled peptide, quantified by fluorescence emission
[7] = unlabeled peptide, quantified by HPLC (AUC, UV 220 nm)

Compound	IC50 [1]	Cytotoxicity HBEC-5i cells IC10 [1]	Cytotoxicity HBEC-5i cells IC90 [1]	Translocation (%) [2, 6]	Hemolytic activity HC10 [3]	Hemolytic activity HC50 [3]	Hemolytic activity HC90 [3]	CC50 at 24 h [4]	Hemolytic activity HC10 [5]	Hemolytic activity HC50 [5]	Hemolytic activity HC90 [5]	Hemolytic activity HC10 ([5]; pH 7.4)	Hemolytic activity HC50 ([5]; pH 7.4)	Hemolytic activity HC90 ([5]; pH 7.4)	Translocation (%) [2, 7]	Hemolysis of RBCs, in words ([3]; human RBCs, up to 100 μM, 24 h)
TF3-SGTQEEY-amide [TF3-PepNeg]	> 200 µM	>200 µM	>200 µM	53.69 ± 2.94%	>200 µM	>200 µM	>200 µM									
C[C@@H](O)[C@H](NC(=O)CNC(=O)[C@H](CO)NC(=O)c1ccc2c(c1)C(=O)OC21c2ccc(O)cc2Oc2cc(O)ccc21)C(=O)N[C@@H](CCC(N)=O)C(=O)N[C@@H](CCC(=O)O)C(=O)N[C@@H](CCC(=O)O)C(=O)N[C@@H](Cc1ccc(O)cc1)C(N)=O [CF-PepNeg] (5FAM-SGTQEEY-NH2)		>200 µM		56.01 ± 3.49%				> 200 µM								
CC[C@H](C)[C@H](NC(=O)CNC(=O)[C@H](C)NC(=O)CCCCCN1C(=CC=CC2=[N+](CC)c3ccccc3C2(C)C)C(C)(C)c2ccccc21)C(=O)N[C@@H](CC(C)C)C(=O)N[C@@H](CCCCN)C(=O)N[C@@H](CCCNC(=N)N)C(=O)N[C@@H](Cc1c[nH]c2ccccc12)C(N)=O [Q570-PepH3] (X1-AGILKRW-NH2)		>200 µM		59.60 ± 2.64%				> 200 µM	> 200 µM	> 200 µM	> 200 µM	>200 µM	>200 µM	>200 µM		
CCN(CC)c1ccc2c(-c3ccccc3C(=O)N[C@@H](CO)C(=O)NCC(=O)N[C@H](C(=O)N[C@@H](CCC(N)=O)C(=O)N[C@@H](CCC(=O)O)C(=O)N[C@@H](CCC(=O)O)C(=O)N[C@@H](Cc3ccc(O)cc3)C(N)=O)[C@@H](C)O)c3ccc(=[N+](CC)CC)cc-3oc2c1 [RhB-PepNeg] (RhodamineB-SGTQEEY-NH2)		>200 µM	>200 µM	51.57 ± 2.43%	>200 µM	>200 µM	>200 µM	> 200 µM								
AGILKRW-NH2 [PepH3]		>200 µM	>200 µM		>200 µM	>200 µM	>200 µM	> 200 µM							55.15 ± 3.16%	non-hemolytic
CC[C@H](C)[C@H](NC(=O)CNC(=O)[C@H](C)NC(=O)c1ccc2c(c1)C(=O)OC21c2ccc(O)cc2Oc2cc(O)ccc21)C(=O)N[C@@H](CC(C)C)C(=O)N[C@@H](CCCCN)C(=O)N[C@@H](CCCNC(=N)N)C(=O)N[C@@H](Cc1c[nH]c2ccccc12)C(N)=O [CF-PepH3] (5FAM-AGILKRW-NH2)		>200 µM		57.09 ± 2.43%				> 200 µM				>200 µM	>200 µM	>200 µM		
CC[C@H](C)[C@H](NC(=O)CNC(=O)[C@H](C)NC(=O)c1ccccc1-c1c2ccc(=[N+](CC)CC)cc-2oc2cc(N(CC)CC)ccc12)C(=O)N[C@@H](CC(C)C)C(=O)N[C@@H](CCCCN)C(=O)N[C@@H](CCCNC(=N)N)C(=O)N[C@@H](Cc1c[nH]c2ccccc12)C(N)=O [RhB-PepH3] (RhodamineB-AGILKRW-NH2)		>200 µM	>200 µM	51.57 ± 4.81%				> 200 µM	9.208 ± 1.564 µM	128.3 ± 6.596 µM	> 200 µM	9.208 µM	128.3 µM	>200 µM		
CC[N+]1=C(C=CC=C2N(CCCCCC(=O)N[C@@H](CO)C(=O)NCC(=O)N[C@H](C(=O)N[C@@H](CCC(N)=O)C(=O)N[C@@H](CCC(=O)O)C(=O)N[C@@H](CCC(=O)O)C(=O)N[C@@H](Cc3ccc(O)cc3)C(N)=O)[C@@H](C)O)c3ccccc3C2(C)C)C(C)(C)c2ccccc21 [Q570-PepNeg] (X1-SGTQEEY-NH2)		>200 µM		48.89 ± 3.05%				> 200 µM								
SGTQEEY-NH2 [PepNeg]		>200 µM	>200 µM					> 200 µM				>200 µM	>200 µM	>200 µM	50.16 ± 3.13%	
TF3-AGILKRW-amide [TF3-PepH3]	> 200 µM	184.9 ± 6.57 µM	>200 µM	56.74 ± 3.89%	>200 µM	>200 µM	>200 µM									
